Results as given in US10011598B2, “Small molecules targeting repeat r(CGG) sequences” (THE SCRIPPS RESEARCH INSTITUTE, priority 2012, dated 2018).
Entries after “also recorded” stand apart in the source; their conditions may differ. Where two headings read alike, the source gives them in different places.

Key:
r(CGG)^exp nuclear foci = experiment: Nuclear foci by fluorescence in situ hybridization (FISH) in COS7 cells; assay type: cell-based; conditions: COS7 cells transfected with r(CGG)60 and GFP
Procedure: FISH experiments were completed as previously described. (8) Briefly, COS7 cells were plated onto glass coverslips and co-transfected with plasmids encoding for r(CGG)60 and GFP. The cells were fixed in 4% paraformaldehyde in PBS (pH 7.4) for 15 min and washed three times with PBS. Then, they were permeabilized with 0.5% Triton X-100 in PBS. Prior to addition of the FISH probe, the cells were pre-hybridized in a 2×SSC buffer containing 40% formamide and 10 mg/mL BSA for 30 min. The coverslips were hybridized for 2 h in 2×SSC buffer supplemented with 40% formamide, 2 mM vanadyl ribonucleoside, 60 μg/mL tRNA, 30 μg/mL BSA, and 0.75 μg (CCG)8-Cy3 DNA oligonucleotide probe. The cells were washed twice in 2×SSC containing 50% formamide and then twice in 2×SSC. Following FISH the coverslips were incubated for 10 min in 2×SSC containing 1 μg/mL DAPI and rinsed twice in 2×SSC. The coverslips were then mounted in Pro-Long media and examined using either a simple fluorescence microscope (Leica) or a Leica DM4000 B confocal microscope.

[1] = system: cTNT alternative splicing; experiment: cTNT mini-gene control splicing in COS7 cells; assay type: cell-based; conditions: for effect on cTNT splicing: no concentration stated, not regulated by Sam68
Description: (§1) Control experiments were also completed to determine the specificity of 1a; that is if it affects the splicing of RNAs not controlled by Sam68. In these experiments, a PLEKHH2 (15) or cardiac troponin T (cTNT) (32) mini-gene was used, as their alternative splicing is not regulated by Sam68. […] Thus, the effect of 1a on pre-mRNA splicing appears to be specific to the splicing of pre-mRNAs regulated by Sam68.

[2] = system: SMN2 exon 7 alternative splicing; experiment: SMN2 mini-gene splicing in COS7 cells (FXTAS model), RT-PCR; assay type: cell-based; conditions: for SMN2 pre-mRNA splicing defects, in words: figure legends
Description: Encouraged by our TR-FRET assay results, we tested the bioactivity of the optimal dimeric small molecule, 2E-5NMe, by using a FXTAS cellular model. In the FXTAS cell model, r(CGG)^exp binds and sequesters Sam68, a pre-mRNA splicing regulator. Sequestration of Sam68 causes its inactivation and dysregulation of alternative pre-mRNA splicing. In particular, the alternative splicing of exon 7 of the survival motor neuron-2 pre-mRNA (SMN2; involved in maintenance of motor neurons and mRNA processing) is dysregulated. Exon 7 is included too frequently when r(CGG)^exp is expressed, ˜70% of time as compared to normal cells in which exon 7 has an inclusion rate of only ˜40% (FIG. 14). Experiments were completed as previously described. Briefly. COS7 cells were co-transfected with plasmids expressing an SMN2 alternative splicing reporter and r(CGG)60. The transfection cocktail was removed, and the cells were incubated with fresh medium containing serially diluted concentrations of compound for 24 h. Total RNA was harvested, and splicing patterns were analyzed via RT-PCR. Remarkably, at […] concentration, 2E-5NMe restores alternative pre-mRNA splicing patterns back to the wild type. The monomer 1a required 10 times higher concentration for the same effect.
(§2) In order to determine if a improves FXTAS-associated splicing defects in vivo, a cell culture model system was used. Briefly. COS7 cells were grown as monolayers in 24- or 96-well plates in growth medium (1×DMEM, 10% FBS, and 1× GlutaMax (Invitrogen)). After the cells reached 90-95% confluency, they were transfected using Lipofectamine 2000 reagent (Invitrogen) or PugenHD (Roche) per the manufacturer's standard protocol. Equal amounts of a plasmid expressing a 60 CGG repeats and a mini-gene of interest (SMN2 or Bcl-x) were used. Approximately 5 h post-transfection, the transfection cocktail was removed and replaced with growth medium containing 1a. After 16-24 h, the cells were lysed in the plate, and total RNA was harvested with a Qiagen RNAEasy kit or a GenElute kit (Sigma). An on-column DNA digestion was completed per the manufacturer's recommended protocol.
(§3) A sample of RNA was subjected to reverse transcription-polymerase chain reaction (RT-PCR) using 5 units of AMV Reverse Transcriptase from Life Sciences or Superscript II (Invitrogen). Approximately 300 ng were reverse transcribed, and 150 ng were subjected to PCR. RT-PCR products were observed after 25-30 cycles of: 95° C. for 1 min: 55° C. for 1 min; 72° C. for 2 min and a final extension at 72° C. for 10 min. The products were separated by polyacrylamide or agarose gel electrophoresis, stained, and imaged using a Typhoon phosphorimager. The splicing isoforms were quantified using QuantityOne software (BioRad). Table S-2 lists the RT-PCR primers used for each mini-gene construct.

[3] = system: Bcl-x exon 2 alternative splicing; experiment: Bcl-x mini-gene splicing in COS7 cells (FXTAS model), RT-PCR; assay type: cell-based; conditions: for Bcl-x splicing: COS7 cells expressing r(CGG)60
Procedure: as §2, §3

r(CGG)12-DGCR8Δ complex = experiment: TR-FRET protein displacement assay; assay type: biochemical; conditions: for Percentage displacement at 25 μM: 25 μM compound, DGCR8Δ displaced from r(CGG)12; for inhibition of the r(CGG)12-DGCR8Δ interaction, in words: comparison within the tested compounds
r(CGG)12 = experiment: Competition dialysis; assay type: binding; conditions: 0.7 μM ligand, 2 μM RNA
Procedure: (§4) Competition dialysis was completed as previously described (31). Briefly, 2 μM RNA or protein was transferred into Slide-a-Lyzer MINI dialysis units with a molecular weight cut-off of 2,000 (Thermo Scientific), and the units were placed into a solution of 0.7 μM ligand. Two blank units containing only buffer were used to monitor equilibration by checking the absorbance at the peak wavelength. After the blank units reached equilibrium, sodium dodecyl sulfate (SDS) was added to a final concentration of 1%, and the absorbance was measured. This absorbance was used to determine total ligand concentration (Ct). The concentration of the dialysate (free ligand concentration. Cf) was determined analogously. The bound ligand concentration (Cb) was then determined using equation 2: Cb=Ct−Cf (eq. 2) where Cb, Ct, and Cf are concentrations of bound, total, and free ligand, respectively. RNA-Binding Assays Via Dye Displacement.

fully paired RNAs = experiment: Competition dialysis; assay type: binding; conditions: 0.7 μM ligand, 2 μM RNA
Procedure: as §4

DGCR8Δ = experiment: Competition dialysis; assay type: binding; conditions: 0.7 μM ligand, 2 μM protein
Procedure: as §4

[4] = target: RNA containing one 5′CGG/3′GGC motif; experiment: RNA-binding assay via Hoechst 33258 dye displacement; conditions: RNA with one 5′CGG/3′GGC motif; Table 1
Procedure: Dissociation constants were determined using an in-solution, fluorescence-based assay (37-45). RNA was annealed in DNA buffer (8 mM Na2HPO4, pH7.0, 185 mM NaCl, 0.1 mM EDTA, 40 μg/mL BSA) at 60° C. for 5 min and allowed to slowly cool to room temperature. The annealed RNA was then titrated into DNA buffer containing 1000 nM Hoechst 33258. Fluorescence signal was recorded using a Bio-Tek FLX-800 plate reader, which was equipped with excitation filter at 360/40 nm and emission filter at 460/40 nm. The change in fluorescence intensity as a function of RNA concentration was fit to the following equation (eq. 3): (37, 46) I=I0+0.5Δϵ{([Ht0]+[RNA]0+Kt)−(([Ht]0+[RNA]0+Kt)^2−4[Ht]0[RNA]0)^0.5} (eq. 3) where I is the observed fluorescence intensity, I0 is the fluorescence intensity in the absence of RNA, Δϵ is the difference between the fluorescence intensity in the absence of RNA and in the presence of infinite RNA concentration and is in units of M^−1. […]
Ligands 1a-1d were then added to compete for binding to the RNA (1 μM) in presence of Hoechst 33258 (1 μM). Reduction in fluorescence of Hoechst 33258 was measured using a Bio-Tek FLX-800 plate reader as a function of ligand concentration (1a-1d) and was fit to the following equation (eq. 4): (41) […]

[5] = system: PLEKHH2 alternative splicing; experiment: PLEKHH2 mini-gene control splicing in COS7 cells; assay type: cell-based; conditions: for effect on PLEKHH2 splicing: no concentration stated, not regulated by Sam68
Description: as §1

[6] = 500 μM, splicing not regulated by Sam68
[7] = cells that do not express r(CGG)60
[8] = 62 times of competitor tRNA, Table 2, read-out: IC50 at the presence of 62 times of competitor, tRNA
[9] = disruption of r(CGG)12-DGCR8Δ complex, Table 1, read-out: IC50
[10] = inhibition of r(CGG)12-DGCR8Δ complex, Table 2, read-out: IC50
[11] = read-out: IC50 for disruption of r(CGG)12-DGCR8Δ complex / inhibition of protein binding

| SMILES | effect on cTNT splicing [1] | SMN2 pre-mRNA splicing defects, in words ([2]; COS7 cells expressing r(CGG)60) | r(CGG)12-DGCR8Δ complex formation, % (r(CGG)12-DGCR8Δ complex; 1 μM compound, Table 2) | r(CGG)12-DGCR8Δ complex formation, % (r(CGG)12-DGCR8Δ complex; 10 μM compound, Table 2) | Percentage displacement at 25 μM (r(CGG)12-DGCR8Δ complex; Table 1) | IC50 (r(CGG)12-DGCR8Δ complex; [8]) | IC50 (r(CGG)12-DGCR8Δ complex; [9]) | IC50 (r(CGG)12-DGCR8Δ complex; [10]) | IC50 (r(CGG)12-DGCR8Δ complex; [11]) | Kd [4] | effect on PLEKHH2 splicing [5] | inhibition of the r(CGG)12-DGCR8Δ interaction, in words (r(CGG)12-DGCR8Δ complex) | further results |
| --- | --- | --- | --- | --- | --- | --- | --- | --- | --- | --- | --- | --- | --- |
| Cc1c2cc[n+](CCN3CCCCC3)cc2c(C)c2c1[nH]c1ccc(O)cc12 [1a, 9-hydroxy-5,11-dimethyl-2-(2-(piperidin-1-yl)ethyl)-6H-pyrido[4,3-b]carbazol-2-ium] | not to effect splicing; also recorded: non-effect | improves SMN2 pre-mRNA splicing defects | 66.9 ± 0.7% | 20.4 ± 0.8% | 85 ± 1% | 20.1 µM | 13 ± 0.4 µM | 3.84 ± 0.3 µM | 12 µM | 0.076 ± 0.004 µM | not to effect splicing; also recorded: non-effect | – | size and number of r(CGG)^exp nuclear foci / aggregates (r(CGG)^exp nuclear foci): reduces the size and the number of foci; also recorded: reduced formation of r(CGG)^exp aggregation; also recorded: decreases r(CGG)^exp-protein aggregates; effect on cTNT alternative splicing [1, 6]: did not affect; SMN2 pre-mRNA splicing level ([2]; 100 μM, COS7 cells expressing r(CGG)60): approximately 70 % of wild type; SMN2 pre-mRNA splicing ([2]; 500 μM, COS7 cells expressing r(CGG)60): restores pre-mRNA splicing to levels wild type; concentration at which improvement of SMN2 splicing defects can be observed ([2]; COS7 cells expressing r(CGG)60): 20 µM; concentration required for the same effect relative to 2E-5NMe ([2]; SMN2 splicing restored to wild type): 10 times; effect on SMN2 splicing [2, 7]: No statistically significant effect; Bcl-x splicing ([3]; 100 μM): Statistically significant improvement; Bcl-x splicing ([3]; 500 μM): restoration of wild type splicing patterns; Bcl-x pre-mRNA splicing defects, in words ([3]; COS7 cells expressing 60 r(CGG) repeats): improves Bcl-x pre-mRNA splicing defects; effect on Bcl-x splicing [3, 7]: No statistically significant effect; binding to r(CGG)12 (r(CGG)12): binds tightly; amount of ligand partitioned into fully paired RNAs relative to r(CGG)12 (fully paired RNAs): less than half; binding to DGCR8Δ (DGCR8Δ): very little binding; effect on PLEKHH2 alternative splicing [5, 6]: did not affect |
| Cc1c2cc[n+](C)cc2c(C)c2c1[nH]c1ccc(O)cc12 [1d, elliptinium] | – | – | – | – | 87 ± 5% | – | 7 ± 0.2 µM | – | – | 0.05 ± 0.018 µM | – | – | – |
| Cc1c2cc[n+](Cc3cn(CCCNCC(=O)N(C)C(C)C(=O)N(C)C(C)C(=O)N(C)C(C)C(=O)N(C)C(C)C(=O)N(C)C(C)C(=O)N(CCCn4cc(C[n+]5ccc6c(C)c7[nH]c8ccc(O)cc8c7c(C)c6c5)nn4)CC(N)=O)nn3)cc2c(C)c2c1[nH]c1ccc(O)cc12 (stereo not shown) [2E-5NMe] | does not affect | reduction of pro-mRNA splicing defects | 39.6 ± 0.6% | 5.0 ± 2.6% | – | 3.52 µM | – | 0.47 ± 0.08 µM | – | – | does not affect | the most potent compound | concentration that restores alternative pre-mRNA splicing patterns back to the wild type ([2]; SMN2, COS7 cells with r(CGG)60, 24 h): 50 mM; effect on alternative splicing in healthy cells ([2]; cells without r(CGG)60): does not affect; potency relative to the monomer 1a (r(CGG)12-DGCR8Δ complex; IC50 ratio): ~8 fold; r(CGG)12-DGCR8D complex inhibited (r(CGG)12-DGCR8Δ complex; at 1 mM (so in the source)): 60%; r(CGG)12-DGCR8D complex inhibited (r(CGG)12-DGCR8Δ complex; at 10 mM (so in the source)): 95% |
| Cc1c2ccncc2c(C)c2c1[nH]c1ccc(O)cc12 [1e, 9-hydroxyellipticine] | – | – | – | – | 46 ± 5% | – | ~25 µM | – | ~25 µM | – | – | markedly decreased | – |
